Results as given in publication PMC7616177, “From structure to clinic: Design of a muscarinic M1 receptor agonist with the potential to treat Alzheimer’s disease” (Cell, 2021).

What was measured:
[1] = test system: CA1 pyramidal cells; assay: Electrophysiological recordings in rat hippocampal slices; format: cell-based; settings: read-out: Spontaneous firing rate of CA1 pyramidal cells EC50
[2] = test system: healthy volunteers; assay: Clinical EEG/ERP P300 active auditory oddball paradigm; format: in vivo; settings: human multiple dosing, high exposure group, day 9
Method: Routine EEG was performed for all subjects during screening enrolled in the multiple ascending dose study to avoid enrolling subjects showing clinically significant abnormalities. 19-lead EEG recordings were employed for quantitative (qEEG) analyses. qEEGs were are recorded in resting state with alternating 30 s eyes open and 30 s eyes closed for 5 min first and then about 5 min eyes closed. The P50 protocol employed a series of “click pairs.” The interval between click pairs is at random between 6 to 10 s (Stimuli S1 and S2, 1000 Hz, duration 3 ms, 80 dB sound pressure level [SPL], stimulus onset asynchrony [SOA] = 500 ms, The MMN protocol used twelve different frequencies ranging in 50 Hz steps from 700 to 1250 Hz delivered binaurally via special headphones or earphones. All stimuli were presented with a constant SOA of 300 ms in a pseudo-randomized order assuming a frequency deviation of one train to another of at least 100 Hz with three different lengths/durations of series which occurred evenly. For the P300 active auditory oddball paradigm sinusoidal tones of 90 dB SPL intensity and 50 ms duration were delivered binaurally in an inter-stimulus-interval of 1000 msec. The standard stimulus, a low frequency tone (1000 Hz) appeared with a frequency of 85%. […]

[3] = test system: healthy elderly subjects; assay: Clinical fMRI Arena task in healthy elderly subjects; format: in vivo, human; set-up: Activation across a-priori regions during encoding and retrieval / Left hippocampus activation effect: dose or concentration left out as unconfirmed
Text: All functional MRI images were acquired on a 3T scanner using gradient echo-echo planar imaging (GRE-EPI: TR: […]; TE: 30 ms; 90-degree flip angle; slices: 53; voxel size 3.75x 3.75 mm) and an 8-channel head coil. All data processing was done using Statistical Parameteric Mapping (SPM) version 5 software. All functional images were co-registered to subjects own T1 weighted structural image for anatomical localization, realigned using a least-squares approach and a 6 parameter (rigid body) spatial translation, normalized to Montreal neurological institute (MNI) using a high dimensional, non-linear transformation and smoothed using 3D 7 mm Gaussian filter. A high pass filter was applied to remove low temporal frequency drift. Bilateral hippocampal and caudate masks based on previous publications using the Arena task were used for analysis ([Antonova et al., 2009], [2011]). The masks consisted of spheres of radius 6mm centered on co-ordinates from these papers.
A block design was used to assess functional activation during encoding, retrieval, and rest (control) conditions of the Arena task. Beta-estimates of functional response during each condition were created by modeling signal changes convolved with a double gamma hemodynamic response function with peak responses at 4 and 8 s following stimulus onset for each individual. In the first level analysis, difference in beta estimates for encoding versus rest, and retrieval versus rest were derived. […] Functional responses in the a-priori ROIs were extracted using hippocampal, ventral striatum, and caudate masks derived from subject own T1 weighted image. To test for drug effects in these pre-specified regions an ANOVA including fixed-effect terms representing treatment group, study site as a between subject factor, and baseline MMSE score as covariate was used.

[4] = target: T1, M2-receptor (Homo sapiens, UniProt P08172); assay: M2-receptor functional agonist assay; format: cell-based; set-up: expressed in transfected cells
T1 sequence (P08172 1-466): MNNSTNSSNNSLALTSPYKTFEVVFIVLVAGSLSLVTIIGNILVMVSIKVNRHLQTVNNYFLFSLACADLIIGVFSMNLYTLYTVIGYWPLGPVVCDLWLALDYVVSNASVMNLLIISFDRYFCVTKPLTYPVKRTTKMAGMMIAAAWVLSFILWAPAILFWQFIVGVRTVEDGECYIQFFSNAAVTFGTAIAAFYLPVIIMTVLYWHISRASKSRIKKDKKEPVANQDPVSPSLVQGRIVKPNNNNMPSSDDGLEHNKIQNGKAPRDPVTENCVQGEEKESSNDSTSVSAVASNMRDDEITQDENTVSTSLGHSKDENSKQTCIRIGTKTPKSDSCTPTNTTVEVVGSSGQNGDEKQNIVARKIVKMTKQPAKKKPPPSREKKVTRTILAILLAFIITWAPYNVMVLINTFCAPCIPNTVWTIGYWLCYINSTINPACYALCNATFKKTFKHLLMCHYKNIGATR
Method: Functional assays were performed using the Alphascreen Surefire phopho-ERK1/2 assay. […] Once adhered, cells were serum starved overnight. Agonist stimulation was performed by the addition of […] agonist to the cells for a pre-optimized 5 min period (37°C). Media was removed and 50 μl of lysis buffer added. After 15 min a 4 μl sample was transferred to a 384-well plate and 7 μl of detection mixture added.

[5] = test system: dogs; assay: Safety pharmacology and toxicology clinical signs, dog

CCOC(=O)N1CCC[C@H](N2CCC(C(=O)NC3(C)CCC3)CC2)CC1 [HTL9936, ethyl (S)-4-(4-((1-methylcyclobutyl)carbamoyl)piperidin-1-yl)azepane-1-carboxylate]
EC50 [1]: 1600 nM | P300 deviant amplitude at electrodes Fz and Cz [2]: significant within- and between-group effects for deviant amplitude | Activation across a-priori regions during encoding and retrieval ([3]; 10.1 dose (so in the source)): increased bilateral activation | Left hippocampus activation effect ([3]; 40.3 dose (so in the source)): smaller effect | Arena task performance ([3]; healthy elderly, i.v. infusion): did not significantly improve task performance | fMRI activation during encoding of spatial cues ([3]; healthy elderly, i.v. infusion): significant drug by activation interaction effect in the left hippocampus | Predicted steady-state plasma concentration ([3]; human, high dose 40.3 mg i.v.): 100 ng/mL | Predicted exposure as multiple of human M1-receptor in vitro potency ([3]; human, low and high doses): 0.2- to 3.4 fold | Predicted steady-state plasma concentration ([3]; human, low dose 10.1 mg i.v.): 25 ng/mL | EC50 [4]: > 20000 nM | M2-receptor agonist activity [4]: no detectable agonism | Cu,pl above which clinical signs were observed [5]: 283 nM | Plasma exposure above which salivation, vomiting, lacrimation were observed [5]: exceeded 157 ng/mL
